Among the data in patent publication US8957049B2, “Inhibitors of fatty acid amide hydrolase” (Infinity Pharmaceuticals, Inc., priority 2008, dated 2015) are Ki values, retold here.

In general, Ki refers to the equilibrium dissociation constant of an inhibitor or competing ligand from its target.

The assay has as its target T1, human FAAH (Homo sapiens, UniProt O00519).
T1 construct: host or cells: COS-7 cells, transient transfection (FuGENE 6); 13,000 g membrane fraction solubilised in 1% Triton X-100
T1 sequence (O00519 1-579): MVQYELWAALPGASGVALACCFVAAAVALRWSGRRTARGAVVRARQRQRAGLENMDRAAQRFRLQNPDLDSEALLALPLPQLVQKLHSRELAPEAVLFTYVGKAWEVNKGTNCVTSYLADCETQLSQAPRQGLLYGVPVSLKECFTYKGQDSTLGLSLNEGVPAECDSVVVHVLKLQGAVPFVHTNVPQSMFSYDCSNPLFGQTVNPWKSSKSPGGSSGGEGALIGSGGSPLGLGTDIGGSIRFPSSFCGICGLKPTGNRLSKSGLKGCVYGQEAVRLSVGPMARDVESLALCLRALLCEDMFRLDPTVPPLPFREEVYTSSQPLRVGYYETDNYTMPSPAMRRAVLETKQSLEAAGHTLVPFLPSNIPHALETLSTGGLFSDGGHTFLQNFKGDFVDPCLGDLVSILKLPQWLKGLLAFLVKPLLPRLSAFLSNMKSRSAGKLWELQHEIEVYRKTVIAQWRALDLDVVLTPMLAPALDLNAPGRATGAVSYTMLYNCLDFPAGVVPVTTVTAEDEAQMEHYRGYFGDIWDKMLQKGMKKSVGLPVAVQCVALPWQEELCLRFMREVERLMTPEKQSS
Put plainly: Human FAAH biochemical inhibition assay (AMC arachidonoyl amide fluorescence). The method, boiled down: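 Human FAAH from solubilized membranes of transiently transfected COS-7 cells, 0.1 mg/mL in 50 mM Hepes pH 7.5, 1 mM EDTA, 0.2% Triton X-100, preincubated 30 min at room temperature with 3-fold serially diluted inhibitor. Hydrolysis of AMC arachidonoyl amide read by fluorescence (ex 355/em 460 nm). Data fitted to single-site competitive inhibition with Km fixed at 9 μM.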

The mark [1] stands for this setting: class given in each Example, read-out: Activity (Ki, inhibition of human FAAH).
Setting [2] is: Table A, read-out: Activity (Ki) of other boronic acids tested, Table A.

SMILES strings stand for the structures. Where two headings read alike, the source gives them in different places.

Take `CCCc1nnc(-c2cc(OC)ccc2B(O)O)o1` [Compound 260]: the Ki under setting [1] is above 1000 nM. Regarding `O=C1c2ccc(B(O)O)cc2C(=O)N1Cc1ccccc1` [Compound 308], under setting [1], the Ki was at most 10 nM. For `OB(O)c1ccc(Oc2ccc(F)nc2)cc1F` [Compound 298], the Ki under setting [1] is at most 10 nM. Consider `OB(O)c1ccc2cc(Oc3ccccn3)ccc2c1` [Compound 185], for which the Ki under setting [1] was at most 10 nM. As to `OB(O)c1ccc(Cn2cc(-c3ccccc3)nn2)cc1` [Example 122], under setting [1], the Ki lay within 10 to 100 nM.

As to `OB(O)c1ccc([C@@H]2OC[C@H](c3ccccc3)O2)cc1` [Compound 180], the inhibitory constant (Ki) under setting [1] was at most 10 nM.

On to `OB(O)c1ccc(-c2nnc(-c3cccc4c3OCC4)o2)cc1` [Compound 46], for which, under setting [1], the Ki is at most 10 nM.

For `OB(O)c1ccc(-c2nnc(-c3cccc4c3OC(F)(F)O4)o2)cc1` [Compound 52], the Ki under setting [1] was at most 10 nM. For `CCOC(=O)COc1ccc(B(O)O)cc1`, the Ki under setting [2] lay in the range of 100 to 1000 nM. As to `OB1NN=Cc2cc(OCc3ccccc3)ccc21` [Compound 258], the Ki under setting [1] is above 1000 nM. On to `O=C(O)CCc1ccc(B(O)O)cc1`, for which the Ki under setting [2] was above 1000 nM. With `COc1cccc(-c2nnc(-c3ccc(B(O)O)cc3)o2)c1OC` [Compound 44], under setting [1], the Ki was at most 10 nM. As for `OB(O)c1ccc(-c2nnc(CCCC(F)(F)F)o2)cc1` [Compound 40], the Ki under setting [1] was at most 10 nM. As for `OB(O)c1ccc(-c2nnc(-c3cccc(C(F)(F)F)c3)s2)cc1` [Compound 48], the Ki under setting [1] is at most 10 nM. Consider `CCOc1nnc(-c2ccccc2B(O)O)o1` [Compound 286], for which, under setting [1], the Ki was above 1000 nM.

With `OB(O)c1ccc2nc(Nc3ccccc3)ccc2c1` [Compound 206], under setting [1], the Ki is at most 10 nM. In the case of `OB1c2cscc2C=NN1Cc1ccccc1` [Compound 257], the Ki under setting [1] is above 1000 nM. On to `COc1ccc2cc(-c3ccc(B(O)O)cc3)ccc2c1` [Compound 228], for which, under setting [1], the Ki is 10 to 100 nM. `OB(O)c1ccc2nc(CCCC(F)(F)F)oc2c1` [Compound 246]: the Ki under setting [1] is at most 10 nM.

Consider `CCCc1nnc(-c2cc(OCCc3ccccc3)ccc2B(O)O)s1` [Compound 267], for which the Ki under setting [1] is at most 10 nM. Still for that read-out and setting: the same measure for `CC(C)(C)c1nnc(-c2ccc(B(O)O)cc2)o1` [Compound 77]: at most 10 nM; for `O=S(=O)(c1ccccc1)N1CCC(Cc2nc3ccc(B(O)O)cc3o2)CC1` [Compound 305]: 10 to 100 nM; for `OB(O)c1ccc2nn(CCc3ccccc3)cc2c1` [Compound 315]: at most 10 nM. Take `COc1ccc2c(c1)B(O)N(Cc1ccccc1)N=C2` [Compound 255]: under setting [1], the Ki was above 1000 nM. For `OB(O)c1cc2oc(CCc3ccccc3)nc2cc1F` [Compound 253], the Ki under setting [1] is at most 10 nM. As to `OB(O)c1ccc(-c2nnc(-c3ccccc3)o2)c(C(F)(F)F)c1` [Compound 81], the Ki under setting [1] is 100 to 1000 nM.

For the molecule `O=C(Cc1ccccc1)N/N=C/c1cc(OCc2ccccc2)ccc1B(O)O` [Compound 124], the Ki under setting [1] lay within 10 to 100 nM. Consider `CC(=O)NCCc1nnc(-c2ccc(B(O)O)cc2)o1` [Compound 85], for which, under setting [1], the Ki is 100 to 1000 nM. Regarding `OB(O)c1ccc(Oc2cncc(F)c2)cc1` [Compound 297], the Ki under setting [1] was at most 10 nM. Consider `CCCC1CC(c2ccccc2B(O)O)=NO1` (stereo not shown) [Compound 167], for which, under setting [1], the Ki was 10 to 100 nM. Regarding `OB(O)c1ccc2nc(Oc3ccccn3)ccc2c1` [Compound 215], the Ki under setting [1] is at most 10 nM. As for `CC(C)c1cccc(-c2ccc(B(O)O)c(F)c2)c1` [Compound 289], under setting [1], the Ki is at most 10 nM. As for `Cc1nc(-c2nnc(-c3cc(OCCc4ccccc4)ccc3B(O)O)o2)cs1` [Compound 269], the Ki under setting [1] fell in the range of 100 to 1000 nM. As for `OB(O)c1ccc2cn(CCc3ccccc3)nc2c1` [Compound 314], the Ki under setting [1] is at most 10 nM. For `OB1c2cc3c(cc2C=NN1Cc1ccccc1)OCO3` [Compound 254], under setting [1], the inhibition constant Ki is above 1000 nM. As to `OB(O)c1ccc(-c2cnnn2Cc2ccccc2)cc1F` [Compound 138], the Ki under setting [1] lay in the range of 100 to 1000 nM.

As to `OB(O)c1ccc(-c2cn(Cc3ccccc3)nn2)cc1F` [Compound 137], the inhibition constant Ki under setting [1] fell in the range of 10 to 100 nM. Same read-out and setting: for `O=C(/C=C/c1cc(OCCc2ccccc2)ccc1B(O)O)NCc1cccnc1` [Compound 287] the value was above 1000 nM.

Take `Cc1cc(B2OC(C)(C)C(C)(C)O2)cnc1N1CCN(C)CC1`: the Ki under setting [2] was above 1000 nM. With `Cn1ccc2c(-c3nnc(-c4ccc(B(O)O)cc4)o3)cccc21` [Compound 51], the Ki under setting [1] was at most 10 nM. Turning to `CC(C)CCCc1nnc(-c2ccc(B(O)O)cc2)o1` [Compound 38], the Ki under setting [1] was at most 10 nM. On the same count and under the same terms, for `CCCCOc1ccc2cc(B(O)O)ccc2n1` [Compound 191] the value was at most 10 nM; for `OB(O)c1ccc2oc(CCc3ccccc3)cc2c1` [Compound 291], at most 10 nM; for `OB(O)c1ccc([C@H]2OC[C@@H](c3ccccc3)CO2)cc1F` [Compound 174], at most 10 nM. On to `CC(=O)NCc1ccc(B(O)O)cc1`, for which the Ki under setting [2] was above 1000 nM. On the same count and under the same terms, for `O=S(=O)(c1ccc(B(O)O)cc1)n1cccc1` the value was 10 to 100 nM. Regarding `CC(=O)N/N=C/c1cc(OCCc2ccccc2)ccc1B(O)O` [Compound 120], the Ki under setting [1] is at most 10 nM. `OB(O)c1ccc(-c2cccc3ncccc23)cc1F` [Compound 229]: under setting [1], the Ki was in the range of 10 to 100 nM. Take `OB(O)c1ccc(-c2nnc(-c3cccc4c3OCCO4)o2)cc1` [Compound 43]: the Ki under setting [1] is at most 10 nM. Same read-out and setting: the same measure for `CC(C)(C)OC(=O)NCc1nnc(-c2ccc(B(O)O)cc2)o1` [Compound 83]: 10 to 100 nM. For `O=C1CCCN1CCc1nnc(-c2ccc(B(O)O)cc2)o1` [Compound 10], under setting [1], the Ki lay within 100 to 1000 nM. With `OB(O)c1ccc2nc(Oc3cccnc3)ccc2c1` [Compound 209], under setting [1], the Ki is at most 10 nM. For `OB(O)c1ccc(-c2nnc(-c3ccccc3)s2)cc1` [Compound 62], the Ki under setting [1] is at most 10 nM. On to `COc1cccc(Oc2ccc3cc(B(O)O)ccc3n2)c1` [Compound 189], for which the Ki under setting [1] is at most 10 nM. In the case of `CCCCOc1ccc(B(O)O)c(-c2nnc(CCC)o2)c1` [Compound 271], under setting [1], the inhibition constant Ki was 10 to 100 nM.

Consider `OB(O)c1ccc(-c2nnc(-c3cccc4c3OCO4)s2)cc1` [Compound 50], for which the Ki under setting [1] is at most 10 nM. Turning to `COC(=O)NCCc1nnc(-c2ccc(B(O)O)cc2)o1` [Compound 86], the Ki under setting [1] lay in the range of 10 to 100 nM. Turning to `Cc1nc(Cc2nnc(-c3ccc(B(O)O)cc3)o2)cs1` [Compound 23], the Ki under setting [1] fell in the range of 10 to 100 nM.

For `OB(O)c1ccc2nc(Oc3ccc(Cl)cc3)ccc2c1` [Compound 201], the Ki under setting [1] was at most 10 nM.

Turning to `CCCCCc1nnc(-c2ccc(B(O)O)cc2)o1` [Compound 30], the Ki under setting [1] is at most 10 nM. Consider `CC(C)(C)OC(=O)NCCc1nnc(-c2ccc(B(O)O)cc2)o1` [Compound 82], for which, under setting [1], the Ki fell in the range of 10 to 100 nM. Still for that read-out and setting: for `OB(O)c1ccc2oc(CCc3ccccc3)nc2c1` [Compound 242] the value was at most 10 nM; for `OB(O)c1ccc(-c2nnc(-c3ccccc3)o2)cc1F` [Compound 79], 10 to 100 nM; for `OB(O)c1ccc2nc(Oc3ccccc3)sc2c1` [Compound 214], at most 10 nM. As to `C=CCCCc1nnc(-c2ccc(B(O)O)cc2)o1` [Compound 78], the Ki under setting [1] is at most 10 nM. As to `COC(=O)/C=C/c1cc(OCCc2ccccc2)ccc1B(O)O` [Compound 100], the Ki under setting [1] was at most 10 nM. With `Cn1cncc1-c1nnc(-c2ccc(B(O)O)cc2)o1` [Compound 54], under setting [1], the Ki fell in the range of 10 to 100 nM. Still for that read-out and setting: the same measure for `OB(O)c1ccc2nc(Oc3ccccc3)cnc2c1` [Compound 211]: 10 to 100 nM; for `CCCCCc1nnc(-c2ccc(B(O)O)c(F)c2)o1` [Compound 26]: at most 10 nM; for `Cc1cc(Oc2ccccc2)nc2c(C)cc(B(O)O)cc12` [Compound 212]: 10 to 100 nM. Regarding `CN(CCCc1ccc(B(O)O)cc1)S(=O)(=O)c1ccccc1` [Compound 238], under setting [1], the Ki was at most 10 nM. Regarding `OB(O)c1ccc(-c2cn(-c3ccccc3)nn2)cc1` [Compound 130], under setting [1], the Ki is 10 to 100 nM. Still for that read-out and setting: the same measure for `Cc1cccc(Cn2cc(-c3ccc(B(O)O)cc3)nn2)c1` [Compound 129]: at most 10 nM. Take `COCc1cc(OCCc2ccccc2)ccc1B(O)O` [Compound 95]: the Ki under setting [1] lay within 10 to 100 nM.

Take `Cc1cc(Oc2ccccc2)nc2ccc(B(O)O)cc12` [Compound 213]: the Ki under setting [1] is at most 10 nM.

For the molecule `O=C1CC(c2nc3ccc(B(O)O)cc3o2)CN1c1ccccc1` (stereo not shown) [Compound 248], the Ki under setting [1] lay in the range of 10 to 100 nM.

In the case of `OB(O)c1ccc(-c2nc(-c3ccccc3)c[nH]2)cc1F` [Compound 7], under setting [1], the inhibition constant Ki was above 1000 nM. Still for that read-out and setting: the same measure for `OB(O)c1ccccc1-c1nnc(-c2ccccc2)o1` [Compound 31]: above 1000 nM; for `Cc1nc(-c2ccccc2)sc1-c1ccc(B(O)O)c(F)c1` [Compound 225]: 10 to 100 nM. On to `CC(=O)Nc1ccc(B(O)O)cc1`, for which, under setting [2], the Ki was above 1000 nM.

`OB(O)c1ccc2cc(Oc3cnccn3)ccc2c1` [Compound 186]: the Ki under setting [1] is at most 10 nM. For `[O-]/[N+](=C\c1cc(OCc2ccccc2)ccc1B(O)O)Cc1ccccc1` [Compound 106], the inhibitory constant (Ki) under setting [1] is 100 to 1000 nM.
